Measured values from patent publication US20240016938A1, “METHODS FOR INCREASING THE BIOAVAILABILITY OF NUCLEOSIDE MEDICINAL AGENTS” (ZOGENIX MDS, INC., priority 2022, published 2024).

Assay: Pooled population PK analysis of dC and dT (five studies: healthy volunteers, renal impairment, TK2d participants)
Conditions: human, in vivo
Method: A phase 2 study was conducted as an open-label continuation of treatment with MT1621 in participants with TK2designed to evaluate the safety, tolerability, and PK of MT1621 (fixed dose combination of dC and dT supplied in a single packet). The study enrolled forty-seven (47) participants. After enrollment, participants transitioned from their current chemical grade 2′-deoxycytidine monophosphate/2′-deoxythymidine monophosphate (dCMP/dTMP) to deoxycytidine and deoxythymidine, or continued the use of deoxycytidine and deoxythymidine. Upon enrollment, participants who were on a stable maintenance dose of 400 mg/kg/day were treated with the same dose of deoxycytidine and deoxythymidine three-times daily (TID). Study participants who were on a total dose <400 mg/kg/day were transitioned to either 260 mg/kg/day (130 mg/kg/day of deoxycytidine and 130 mg/kg/day of deoxythymidine) TID, 520 mg/kg/day (260 mg/kg/day of deoxycytidine and 260 mg/kg/day of deoxythymidine) TID, or 800 mg/kg/day (400 mg/kg/day of deoxycytidine and 400 mg/kg/day of deoxythymidine) TID, depending on which was closest to the participants' previous dose.
The early protocol for deoxycytidine and deoxythymidine administration was for the participants to take the drug product without regard to food. […] Later in the program, when an unexpected effect of food on PK was noted, the protocol was amended to instruct the participants to take the drug product with food. By then, planned PK samples had been taken in a majority of the participants. A total of 3 blood samples were collected from each individual following study Day 1 to measure dC plasma concentrations. Sparse PK blood sampling and PD endpoint collection was conducted according to the following schedule: at Month 1 sampled 0.5, 1, 2, or 3 hours post-dose; and at Month 3 sampled 8, 10, 12, or 14 hours post-dose. During sampling, it was noted whether food was consumed from 1 hour pre-dose to 2 hours post-dose. And, the lower limit of quantification (LLOQ) was 0.5 ng/mL for both dC and dT.
For the calculation of the PK parameters, raw (unadjusted) plasma dC and dT concentrations below the limit of quantitation (BLQ) were set to 1% the limit of quantitation (LOQ) of the assay. […] Since all participants had measurable pre-dose concentrations, Kel and associated PK parameters were not calculated for unadjusted data.
Analysis of the PK data pooled from five (5) studies (including those described in Examples 1 and 2) comprising three (3) Phase 1 studies in healthy volunteers (HV) and two (2) open-label Phase 2 studies that included both adult and pediatric study participants with TK2d. A total of 119 study participants were included, which consisted of 44 healthy study participants, 16 study participants with renal impairment (moderate or severe), and 59 participants with TK2d that included participants aged from 0.9 years to 75.6 year of age.
Pooled population PK analysis confirmed that the fed state was a statistically significant covariate of the PK of dC including the TK2 deficient participants. Table 6 reflects analysis of all dC PK data including those for TK2 deficient participants. […] This is the pertinent value to estimate food effect on dC exposures. […] The decrease in the rate of dC absorption with food (parameter Ka in Table 6) is believed to be due to slower gastric/intestinal motility in the fed state. It is likely that the effect of food on dT concentration in participants with TK2 deficiency was masked by the high variability and limited PK sampling.

Structure (SMILES): Nc1ccn([C@H]2C[C@H](O)[C@@H](CO)O2)c(=O)n1 [dC, β-D-2′-deoxycytidine]
- CL/F, apparent clearance: Bootstrap Median [2.5th-97.5th percentile]: 392000 (318000, 492000) L/h
- CL/F, apparent clearance: NONMEM Estimate (% RSE): 392000 (11.0%) L/h
- IIV on BSL: Bootstrap Median [2.5th-97.5th percentile]: 26.9% (19.4%, 35.3%)
- IIV on BSL: NONMEM Estimate (% RSE): 27.3% (15.0%) CV %
- IIV on CL/F: Bootstrap Median [2.5th-97.5th percentile]: 60.3% (36.2%, 82.3%)
- IIV on CL/F: NONMEM Estimate (% RSE): 61.6% (18.0%) CV%
- IIV on F: Bootstrap Median [2.5th-97.5th percentile]: 73.3% (37.8%, 102%)
- IIV on F: NONMEM Estimate (% RSE): 75.1% (19.8%) CV %
- IIV on Ka: Bootstrap Median [2.5th-97.5th percentile]: 62.6% (36.1%, 81.8%)
- IIV on Ka: NONMEM Estimate (% RSE): 65.9% (13.6%) CV %
- IIV on V/F: Bootstrap Median [2.5th-97.5th percentile]: 77.9% (39.3%, 107%)
- IIV on V/F: NONMEM Estimate (% RSE): 77.3% (18.0%) CV %
- IOV on F: Bootstrap Median [2.5th-97.5th percentile]: 31.4% (26.3%, 37.9%)
- IOV on F: NONMEM Estimate (% RSE): 31.5% (8.01%) CV %
- Ka, absorption rate constant: Bootstrap Median [2.5th-97.5th percentile]: 0.465 (0.361, 0.638) h^−1
- Ka, absorption rate constant: NONMEM Estimate (% RSE): 0.466 (11.5%) h^−1
- Proportional RUV: Bootstrap Median [2.5th-97.5th percentile]: 17.4% (16.1%, 18.8%)
- Proportional RUV: NONMEM Estimate (% RSE): 17.5% (3.76%)
- V/F, apparent volume of distribution: NONMEM Estimate (% RSE): 284000 (19.9%) L
- Vd/F: 278000 L
- dC BSL, dC endogenous baseline level: Bootstrap Median [2.5th-97.5th percentile]: 3.45 (3.21, 3.65) ng/mL
- dC BSL, dC endogenous baseline level: NONMEM Estimate (% RSE): 3.45 (3.29%) ng/mL
- decrease of absorption rate constant (Ka) with food intake: ~44%
- difference in F between HV and TK2 deficient participants: No difference in F was detected
- endogenous baseline across studies and populations: the same across studies and populations

Structure (SMILES): Cc1cn([C@H]2C[C@H](O)[C@@H](CO)O2)c(=O)[nH]c1=O [dT, β-D-2′-deoxythymidine]
- F lower in healthy volunteers compared to TK2 deficient participants: 70-90%
- bioavailability: ~83%
- decrease of F in Latino/Hispanic population: ~50%
- decrease of absorption rate constant from first input compartment (K12) with high-fat content meal: ~80%
- decrease of lag time from second input compartment (ALAG3) with high-fat content meal: ~80%
- dose proportionality of exposures following single ascending doses: more than dose proportional
- endogenous baseline across studies: 0.220 to 1.14 ng/mL
- increase of F with a high-fat content meal: ~120%
